Measurements as given in patent US20210196714A1, “COMPOSITIONS AND METHODS FOR TREATING DISORDERS CHARACTERIZED WITH ABERRANT RAS/MAPK SIGNALING” (Duke University, priority 2018, published 2021).

Key:
morphant KS embryos = conditions: Bogershausen et al. 2015; cited from earlier work
[1] = system: zebrafish kmt2d morphants; assay: Rescue of convergent-extension (CE) phenotype in kmt2d morphants; type: in vivo

Row | SMILES | rescue of CE-driven phenotypes (morphant KS embryos) | amelioration of CE defects over serial dilutions ([1]; 1 nM to 1 μM, 8-10 somite stage) | CE defects at 50 nM and 100 nM doses ([1]; dose response, 50 and 100 nM)
1 | O=C(NOCC1CC1)c1cc(Br)c(F)c(F)c1Nc1ccc(I)cc1Cl [PD184161] | phenocopy this rescue |  | 
2 | CC(C)(C)c1nc(-c2cccc(NS(=O)(=O)c3c(F)cccc3F)c2F)c(-c2ccnc(N)n2)s1 [Dabrafenib, reference compound] |  | did not result in significant amelioration | marginal improvements
